How the values were obtained:
Conditions in all cases: exposure time: 72 h
E57 [1] = patient-derived glioblastoma stem cells of mesenchymal subtype; test: surviving fraction (nuclei count normalised to DMSO); higher = more cells surviving (less toxic)
E28 [2] = patient-derived glioblastoma stem cells of classical subtype; test: as above
E31 [3] = patient-derived glioblastoma stem cells of proneural subtype; test: as above
FT3469 [4] = normal neural stem cell line; test: as above
E21 [5] = patient-derived glioblastoma stem cells of mesenchymal subtype; test: as above
E34 [6] = patient-derived glioblastoma stem cells of proneural subtype; test: as above
E13 [7] = patient-derived glioblastoma stem cells of classical subtype; test: as above
E57 [8] = test: phenotypic distance (Euclidean, principal components) from DMSO controls (arbitrary units); higher = stronger morphological change
E28 [9] = test: as above
E31 [10] = test: as above
FT3469 [11] = test: as above
E21 [12] = test: as above
E34 [13] = test: as above
E13 [14] = test: as above
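Throughout, for phenotypic distance (Euclidean, principal components) from DMSO controls: cell Painting imaging in 384-well plates, CellProfiler features reduced to at least 20 principal components, Euclidean distance versus same-plate DMSO vehicle wells (0.1% v/v), median over six images per well.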
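Throughout, for surviving fraction (nuclei count normalised to DMSO): nuclei counted by high-content imaging of Hoechst-stained cells in laminin-coated 384-well plates, relative to 0.1% DMSO vehicle wells, with staurosporine as cell-death control.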

CC(C)C[C@@H](C(=O)N[C@H](C(=O)OC1CCCC1)c1ccccc1)[C@H](O)C(=O)NO [Tosedostat]
Conditions	phenotypic distance	surviving fraction
E13 [7], 4.1 nM	–	0.889
E13 [7], 12.3 nM	–	0.853
E13 [7], 37 nM	–	0.863
E13 [7], 111.1 nM	–	1.01
E13 [7], 333.3 nM	–	0.894
E13 [7], 1000 nM	–	0.894
E13 [7], 3000 nM	–	0.934
E13 [14], 4.1 nM	0.738	–
E13 [14], 12.3 nM	0.631	–
E13 [14], 37 nM	1.06	–
E13 [14], 111.1 nM	1.01	–
E13 [14], 333.3 nM	1.39	–
E13 [14], 1000 nM	1.41	–
E13 [14], 3000 nM	1.3	–
E21 [5], 4.1 nM	–	0.858
E21 [5], 12.3 nM	–	0.909
E21 [5], 37 nM	–	0.793
E21 [5], 111.1 nM	–	0.78
E21 [5], 333.3 nM	–	0.772
E21 [5], 1000 nM	–	0.715
E21 [5], 3000 nM	–	0.507
E21 [12], 4.1 nM	0.795	–
E21 [12], 12.3 nM	0.918	–
E21 [12], 37 nM	0.947	–
E21 [12], 111.1 nM	1.11	–
E21 [12], 333.3 nM	1.62	–
E21 [12], 1000 nM	1.49	–
E21 [12], 3000 nM	2.1	–
E28 [2], 4.1 nM	–	0.904
E28 [2], 12.3 nM	–	0.755
E28 [2], 37 nM	–	0.781
E28 [2], 111.1 nM	–	0.846
E28 [2], 333.3 nM	–	0.657
E28 [2], 1000 nM	–	0.692
E28 [2], 3000 nM	–	0.583
E28 [9], 4.1 nM	0.786	–
E28 [9], 12.3 nM	1.24	–
E28 [9], 37 nM	1.27	–
E28 [9], 111.1 nM	1.73	–
E28 [9], 333.3 nM	1.68	–
E28 [9], 1000 nM	2.2	–
E28 [9], 3000 nM	2.09	–
E31 [3], 4.1 nM	–	0.788
E31 [3], 12.3 nM	–	0.935
E31 [3], 37 nM	–	0.7
E31 [3], 111.1 nM	–	0.861
E31 [3], 333.3 nM	–	0.836
E31 [3], 1000 nM	–	0.796
E31 [3], 3000 nM	–	0.683
E31 [10], 4.1 nM	1.18	–
E31 [10], 12.3 nM	0.639	–
E31 [10], 37 nM	1.52	–
E31 [10], 111.1 nM	0.949	–
E31 [10], 333.3 nM	1.01	–
E31 [10], 1000 nM	1.28	–
E31 [10], 3000 nM	1.86	–
E34 [6], 4.1 nM	–	0.968
E34 [6], 12.3 nM	–	0.827
E34 [6], 37 nM	–	0.787
E34 [6], 111.1 nM	–	0.842
E34 [6], 333.3 nM	–	0.662
E34 [6], 1000 nM	–	0.8
E34 [6], 3000 nM	–	0.833
E34 [13], 4.1 nM	0.805	–
E34 [13], 12.3 nM	1.29	–
E34 [13], 37 nM	0.677	–
E34 [13], 111.1 nM	1.91	–
E34 [13], 333.3 nM	1.92	–
E34 [13], 1000 nM	1.4	–
E34 [13], 3000 nM	1.6	–
E57 [1], 4.1 nM	–	0.806
E57 [1], 12.3 nM	–	0.83
E57 [1], 37 nM	–	0.744
E57 [1], 111.1 nM	–	0.679
E57 [1], 333.3 nM	–	0.635
E57 [1], 1000 nM	–	0.708
E57 [1], 3000 nM	–	0.622
E57 [8], 4.1 nM	1.53	–
E57 [8], 12.3 nM	1.55	–
E57 [8], 37 nM	1.95	–
E57 [8], 111.1 nM	2.24	–
E57 [8], 333.3 nM	2.7	–
E57 [8], 1000 nM	2.08	–
E57 [8], 3000 nM	2.7	–
FT3469 [4], 4.1 nM	–	0.843
FT3469 [4], 12.3 nM	–	0.843
FT3469 [4], 37 nM	–	0.774
FT3469 [4], 111.1 nM	–	0.831
FT3469 [4], 333.3 nM	–	0.809
FT3469 [4], 1000 nM	–	0.759
FT3469 [4], 3000 nM	–	0.746
FT3469 [11], 4.1 nM	1.7	–
FT3469 [11], 12.3 nM	1.82	–
FT3469 [11], 37 nM	1.97	–
FT3469 [11], 111.1 nM	1.7	–
FT3469 [11], 333.3 nM	1.92	–
FT3469 [11], 1000 nM	2.23	–
FT3469 [11], 3000 nM	2.64	–
